Laboratory results: patent US20170209499A1, “Propolis and Extracts Thereof for the Treatment of Skin Cancers and Improvement of Skin Health” (Manuka Health New Zealand Limited, priority 2014, published 2017)
Where “and” joins values, the source holds several entries; their conditions need not be identical. Identical values can stand only once.

Columns and labels:
Type in all cases: cell-based
[1] = test system: human melanoma cell line A-2058; assay: MTT cell proliferation assay, human melanoma cell line A-2058; conditions: for Mean OD: MTT Optical Density at 570 nm
Excerpt: This example describes the in vitro bioassay used for determining the anti-proliferative activity of test compounds and cyclodextrin-encapsulated propolis complexes against human skin cancer cell lines. The present example tests anti-proliferative efficacy against the human melanoma cell line, A-2058. The cyclodextrin-encapsulated propolis complexes tested are those described in Example 1. The NZ propolis was the same propolis used to manufacture the cyclodextrin complexes CD1-CD3. The Brazilian Green propolis was the same propolis used to manufacture the cyclodextrin complex CD4. The test samples were dissolved in 15% Ethanol (EtOH)/HBSS to make a working solution, which was then diluted 10 times to give a final concentration in the cells of 50 μg/ml unless indicated otherwise.
(§1) The three human skin cancer cell lines were: • 1) Human Melanoma cell line (A-2058). • 2) Human Epidermoid (Squamous) Carcinoma cell line (A-431). • 3) Human Basal Cell Carcinoma cell line (TE 354.T).
(§2) The cell lines were revived from cryostorage and cultured in the presence of the test and reference samples. An MIT assay was then performed on the cultures to determine the effect of the samples on the cell viability and proliferation. The percentage standard error of the mean was assessed and extreme outliers were removed if the SEM%>15. Preliminary statistical significance was assessed with an independent Student t-test at α<0.05 (with and without outliers). The methodology was based on the procedures reported by: • Ahn, N G, Campbell J S (1993). […] Proc Natl Acad Sci. 90: 5143-5147. • Galan-Cobo, A et al (2014). Functional inhibition of aquaporin-3 with a gold-based compound induces blockage of cell proliferation. J Cellul. Physiol. 229: 1787-1801. • Roomi, M W, Kalinovsky, J et al (2013) Effect of a nutrient mixture on matrix metalloproteinase-9 dimers in various human cancer cell lines. Inter 3 Oncol. 44: 936-942. • Huang, H C, Lin, M K et al (2013). Cardenolides and bufadienolide glycosides from Kalanchoe tubiflora and evaluation of cytotoxicity. Planta Medica. 79: 1362-1369. • Tilli, C M L J, Stavast-Kooy, A J W et al (2003). The garlic-derived organosulfur component ajoene decreases basal cell carcinoma tumor size by inducing apoptosis. Arch Dermatol Res. 295: 117-123.
• 1. Human melanoma cell line (A-2058, ATCC CRL11147) was obtained from ATCC, Bethesda, Md., USA. • 2. Human squamous (epidermoid) carcinoma cell line (A-431, ATCC CRL1555) was obtained from ATCC, Bethesda, Md. USA. • 3. Human basal cell carcinoma cell line (TE 354.T, ATCC CRL7762) was obtained from ATCC, Bethesda, Md., USA. • 4. Dulbecco's Modified Eagle's Medium (DMEM) was obtained from GIBCO (12100-038). 10% Foetal Bovine Serum (FBS), 100 U/ml Penicillin and […] Streptomycin were added before use. • 5. Penicillin-streptomycin solution, stored at −20° C. consisting of 10000 units/ml penicillin and 10 mg/ml streptomycin in 0.9% NaCl was obtained from Sigma (#P-0781). • 6. Trypsin-EDTA solution consisting of 0.25% Trypsin/EDTA was obtained from Invitrogen (#15400054). • 7. Phosphate buffered saline (PBS) was prepared in-house. • 8. Hanks Balanced Salt Solution (HBSS), stored at 4° C. was obtained from GIBCO (#14185-052). • 9. Foetal Bovine Serum (FBS) stored at −20° C. was obtained from GIBCO (#10091-148). • 10. MTT Reagent, 100 mg/vial, was obtained from Sigma (M-2128) and then dissolved in PBS at 10 mg/ml and stored at −20° C. A 5 mg/ml MTT solution was prepared in PBS and stored at 4° C. as the working solution. • 11. MU lysis buffer: 10% sodium dodecyl sulphate (SDS)/45% Dimethyl Formamide was prepared by dissolving 20 g SDS in 100 ml of double-distilled water (DDW), and then adding 90 ml of Dimethyl Formamide to the solution. The pH was adjusted to 4.7 by glacial acetic acid, and DDW added up to a final volume of 200 ml. • 12. 5-Fluorouracil (5-FU) was supplied by Sigma (F-6627). Three working solutions were prepared at 19.5 μg/ml. 6.5 μg/ml and 1.95 μg/ml dissolved in 15% Ethanol/HBSS. […]

[2] = test system: human epidermoid cancer cell line A-431; assay: MTT cell proliferation assay, human epidermoid (squamous) carcinoma cell line A-431; conditions: A-431, 200 μg/ml; for % inhibition / inhibition at 200 µg/mL: 24 hr incubation, vs cells only; for Mean OD: MTT Optical Density at 570 nm; for inhibition at 200 µg/mL: Homo sapiens
Procedure: as §1, §2
(§3) • 1. Human melanoma cell line (A-2058, ATCC CRL11147) was obtained from ATCC, Bethesda, Md., USA. • 2. Human squamous (epidermoid) carcinoma cell line (A-431, ATCC CRL1555) was obtained from ATCC, Bethesda, Md. USA. • 3. Human basal cell carcinoma cell line (TE 354.T, ATCC CRL7762) was obtained from ATCC, Bethesda, Md., USA. • 4. Dulbecco's Modified Eagle's Medium (DMEM) was obtained from GIBCO (12100-038). 10% Foetal Bovine Serum (FBS), 100 U/ml Penicillin and […] Streptomycin were added before use. • 5. Penicillin-streptomycin solution, stored at −20° C. consisting of 10000 units/ml penicillin and 10 mg/ml streptomycin in 0.9% NaCl was obtained from Sigma (#P-0781). • 6. Trypsin-EDTA solution consisting of 0.25% Trypsin/EDTA was obtained from Invitrogen (#15400054). • 7. Phosphate buffered saline (PBS) was prepared in-house. • 8. Hanks Balanced Salt Solution (HBSS), stored at 4° C. was obtained from GIBCO (#14185-052). • 9. Foetal Bovine Serum (FBS) stored at −20° C. was obtained from GIBCO (#10091-148). • 10. MTT Reagent, 100 mg/vial, was obtained from Sigma (M-2128) and then dissolved in PBS at 10 mg/ml and stored at −20° C. A 5 mg/ml MTT solution was prepared in PBS and stored at 4° C. as the working solution. • 11. MU lysis buffer: 10% sodium dodecyl sulphate (SDS)/45% Dimethyl Formamide was prepared by dissolving 20 g SDS in 100 ml of double-distilled water (DDW), and then adding 90 ml of Dimethyl Formamide to the solution. The pH was adjusted to 4.7 by glacial acetic acid, and DDW added up to a final volume of 200 ml. • 12. 5-Fluorouracil (5-FU) was supplied by Sigma (F-6627). Three working solutions were prepared at 19.5 μg/ml. 6.5 μg/ml and 1.95 μg/ml dissolved in 15% Ethanol/HBSS. Final concentrations were 1.95 μg/ml (15 μM), 0.65 μg/ml (5 μM) and 0.195 μg/ml (1.5 μM).
(§4) • 1. Each of the cell lines was revived from cryostorage. • 2. Following initial propagation using the media described above (Characterisation of Test System, and Medium Preparation), the cell culture was subcultured using trypsin-EDTA. The media was removed and 5ml of the trypsin-EDTA solution added and incubated at 37° C. for 5 min or until all the cells had detached. The trypsin was neutralised by the addition of an equal volume of the relevant medium and centrifugation of the suspension at 300 g (1200 rpm) for 5 min at 4° C. • 3. […]

[3] = test system: human basal carcinoma cell line TE 354.T; assay: MTT cell proliferation assay, human basal cell carcinoma cell line TE 354.T; conditions: 200 μg/ml; for % inhibition / inhibition at 200 µg/mL: 24 hr incubation, vs cells only; for Mean OD: MTT Optical Density at 570 nm; for inhibition at 200 µg/mL: Homo sapiens
Procedure: as §1, §2, §3, §4

[4] = A-2058, final conc. 200 μg/ml, 24 hr incubation, vs cells only
[5] = Homo sapiens, A2058, 24 h, A-2058, final conc. 200 μg/ml, 24 hr incubation, vs cells only

Structure (SMILES): CC(=O)OC1C(=O)c2c(O)cc(O)cc2OC1c1ccccc1 (stereo not drawn) [Pinobanksin-3-o-acetate, pinobanksin-3-acetate]
- Mean OD ([1]; A-2058, 200 μg/ml): 0.0777
- % inhibition [1, 4]: 61.38%
- inhibition at 200 µg/mL [1, 5]: 61.4%
- % inhibition [2]: very strong inhibitors of proliferation
- Mean OD [2]: 0.0253
- inhibition at 200 µg/mL [2]: 90.4%
- % inhibition [3]: weak inhibitors of proliferation
- Mean OD [3]: 0.2416
- inhibition at 200 µg/mL [3]: 10.4%

Structure (SMILES): C=C(C)CCOC(=O)/C=C/c1ccc(O)c(O)c1 [Complex 3M3BC, 3-methyl-3-butenyl caffeate]
- Mean OD ([1]; A-2058, 20 μg/ml): 0.1070
- % inhibition ([1]; A-2058, final conc. 20 μg/ml, 24 hr incubation, vs cells only): 46.85%
- inhibition at 20 µg/mL ([1]; Homo sapiens, A2058, 24 h, A-2058, final conc. 20 μg/ml, 24 hr incubation, vs cells only): 46.8%
- % inhibition [2]: very strong inhibitors of proliferation
- Mean OD [2]: 0.0475
- inhibition at 200 µg/mL [2]: 81.9%
- % inhibition [3]: weak inhibitors of proliferation
- Mean OD [3]: 0.2245
- inhibition at 200 µg/mL [3]: 16.7%

Structure (SMILES): O=C(O)/C=C/C=C/c1ccccc1 [5-phenyl penta-2,4-dienoic acid, 5-phenylpenta-2,4-dienoic acid]
- Mean OD ([1]; A-2058, 200 μg/ml): 0.1548
- inhibition at 200 µg/mL [1, 5]: 23.1%

Structure (SMILES): O=C(O)/C=C/c1ccc(O)cc1 [p-coumaric acid, reference compound]
- Mean OD ([1]; A-2058, 200 μg/ml): 0.2136
- inhibition at 200 µg/mL [1, 5]: 0%

Structure (SMILES): COc1cc(/C=C/C(=O)OCc2ccccc2)ccc1O [Benzyl ferulate]
- Mean OD ([1]; A-2058, 200 μg/ml): 0.0040
- % inhibition [1, 4]: completely killed all the melanoma cells
- inhibition at 200 µg/mL [1, 5]: 98%

Structure (SMILES): O=C1C[C@@H](c2ccccc2)Oc2cc(O)cc(O)c21 [pinocembrin]
- Mean OD ([1]; A-2058, 200 μg/ml): 0.0013
- % inhibition [1, 4]: completely killed all the melanoma cells
- inhibition at 200 µg/mL [1, 5]: 99.3%

Structure (SMILES): O=C(/C=C/c1ccc(O)c(O)c1)OCCc1ccccc1 [CAPE, caffeic acid phenethyl ester, reference compound]
- Mean OD ([1]; A-2058, 200 μg/ml): 0.1018
- % inhibition [1, 4]: 49.43%
- inhibition at 200 µg/mL [1, 5]: 49.4%

Structure (SMILES): COc1cc(O)c2c(=O)cc(-c3ccccc3)oc2c1 [Tectochrysin]
- Mean OD ([1]; A-2058, 200 μg/ml): 0.0272
- % inhibition [1, 4]: 86.5% and 86.48%
